Measurements as given in the NIST ThermoML archive (doi:10.1021/acs.jced.7b00654).
± gives the expanded uncertainty stated by the source.

Experiments:
[1] = xn = mol fraction of the nth substance listed; details: 96.7 kPa, Liquid, Vibrating tube method
[2] = 96.7 kPa, Vibrating tube method

CC(=O)N(C)C [N,N-dimethylethanamide] + CCCCn1cc[n+](C)c1.[Cl-]
mass density ([1]; 303.15 K, x2 = 0): 931.85 ± 2 kg/m3 | mass density ([1]; 308.15 K, x2 = 0): 927.26 ± 2 kg/m3 | mass density ([1]; 313.15 K, x2 = 0): 922.66 ± 2 kg/m3 | mass density ([1]; 318.15 K, x2 = 0): 918.06 ± 2 kg/m3 | mass density ([1]; 323.15 K, x2 = 0): 913.44 ± 1.9 kg/m3 | mass density ([1]; 328.15 K, x2 = 0): 908.81 ± 1.9 kg/m3 | mass density ([1]; 333.15 K, x2 = 0): 904.16 ± 1.9 kg/m3 | mass density ([1]; 338.15 K, x2 = 0): 899.53 ± 1.9 kg/m3 | mass density ([1]; 343.15 K, x2 = 0): 894.87 ± 1.9 kg/m3 | mass density ([1]; 348.15 K, x2 = 0): 890.19 ± 1.9 kg/m3 | mass density ([1]; 353.15 K, x2 = 0): 885.51 ± 1.9 kg/m3

CCCCn1cc[n+](C)c1.[Cl-] [1-butyl-3-methylimidazolium chloride] + c1ccncc1
mass density ([1]; 303.15 K, x1 = 1): 1079.41 ± 2.3 kg/m3 | mass density ([1]; 308.15 K, x1 = 1): 1076.58 ± 2.3 kg/m3 | mass density ([1]; 313.15 K, x1 = 1): 1073.78 ± 2.3 kg/m3 | mass density ([1]; 318.15 K, x1 = 1): 1070.99 ± 2.3 kg/m3 | mass density ([1]; 323.15 K, x1 = 1): 1068.19 ± 2.3 kg/m3 | mass density ([1]; 328.15 K, x1 = 1): 1065.36 ± 2.3 kg/m3 | mass density ([1]; 333.15 K, x1 = 1): 1062.6 ± 2.3 kg/m3 | mass density ([1]; 338.15 K, x1 = 1): 1059.87 ± 2.3 kg/m3 | mass density ([1]; 343.15 K, x1 = 1): 1057.15 ± 2.3 kg/m3 | mass density ([1]; 348.15 K, x1 = 1): 1054.42 ± 2.3 kg/m3 | mass density ([1]; 353.15 K, x1 = 1): 1051.69 ± 2.3 kg/m3

CN(C)C=O [dimethylformamide] + CCCCn1cc[n+](C)c1.[Cl-]
mass density ([1]; 303.15 K, x2 = 0): 939.18 ± 1.9 kg/m3 | mass density ([1]; 308.15 K, x2 = 0): 934.41 ± 1.9 kg/m3 | mass density ([1]; 313.15 K, x2 = 0): 929.64 ± 1.9 kg/m3 | mass density ([1]; 318.15 K, x2 = 0): 924.86 ± 1.9 kg/m3 | mass density ([1]; 323.15 K, x2 = 0): 920.07 ± 1.9 kg/m3 | mass density ([1]; 328.15 K, x2 = 0): 915.26 ± 1.8 kg/m3 | mass density ([1]; 333.15 K, x2 = 0): 910.44 ± 1.8 kg/m3 | mass density ([1]; 338.15 K, x2 = 0): 905.6 ± 1.8 kg/m3 | mass density ([1]; 343.15 K, x2 = 0): 900.74 ± 1.8 kg/m3 | mass density ([1]; 348.15 K, x2 = 0): 895.87 ± 1.8 kg/m3 | mass density ([1]; 353.15 K, x2 = 0): 890.98 ± 1.8 kg/m3

C[S+](C)[O-] [dimethyl sulfoxide] + CCCCn1cc[n+](C)c1.[Cl-]
mass density ([1]; 303.15 K, x2 = 0): 1090.29 ± 2.2 kg/m3 | mass density ([1]; 308.15 K, x2 = 0): 1085.28 ± 2.2 kg/m3 | mass density ([1]; 313.15 K, x2 = 0): 1080.3 ± 2.2 kg/m3 | mass density ([1]; 318.15 K, x2 = 0): 1075.31 ± 2.2 kg/m3 | mass density ([1]; 323.15 K, x2 = 0): 1070.32 ± 2.2 kg/m3 | mass density ([1]; 328.15 K, x2 = 0): 1065.33 ± 2.1 kg/m3 | mass density ([1]; 333.15 K, x2 = 0): 1060.34 ± 2.1 kg/m3 | mass density ([1]; 338.15 K, x2 = 0): 1055.34 ± 2.1 kg/m3 | mass density ([1]; 343.15 K, x2 = 0): 1050.35 ± 2.1 kg/m3 | mass density ([1]; 348.15 K, x2 = 0): 1045.34 ± 2.1 kg/m3 | mass density ([1]; 353.15 K, x2 = 0): 1040.33 ± 2.1 kg/m3

CCCCn1cc[n+](C)c1.[Cl-] [1-butyl-3-methylimidazolium chloride]
mass density ([2]; 303.15 K, Metastable liquid): 1079.41 ± 2.3 kg/m3 | mass density ([2]; 308.15 K, Metastable liquid): 1076.58 ± 2.3 kg/m3 | mass density ([2]; 313.15 K, Metastable liquid): 1073.78 ± 2.3 kg/m3 | mass density ([2]; 318.15 K, Metastable liquid): 1070.99 ± 2.3 kg/m3 | mass density ([2]; 323.15 K, Metastable liquid): 1068.19 ± 2.3 kg/m3 | mass density ([2]; 328.15 K, Metastable liquid): 1065.36 ± 2.3 kg/m3 | mass density ([2]; 333.15 K, Metastable liquid): 1062.6 ± 2.3 kg/m3 | mass density ([2]; 338.15 K, Metastable liquid): 1059.87 ± 2.3 kg/m3 | mass density ([2]; 343.15 K, Liquid): 1057.15 ± 2.3 kg/m3 | mass density ([2]; 348.15 K, Liquid): 1054.42 ± 2.3 kg/m3 | mass density ([2]; 353.15 K, Liquid): 1051.69 ± 2.3 kg/m3
